According to patent US20230192661A1, “1, 4, 5, 6-TETRAHYDROPYRIMIDINE-2-AMINE DERIVATIVE” (UBE Corporation, priority 2020, published 2023):

What was measured:
[1] = molecular target: T1, αvβ1 (UniProt G3HZ55+P06756); assay: αvβ1 cell adhesion inhibition test (αv-transfected CHO cells on human fibronectin); assay type: cell-based; conditions: human fibronectin coating, 1 mM MnCl2, 1 hour, read-out: IC50 (rate of inhibition of cell adhesion, αvβ1)
T1 construct: expressed in transfected cells; host or cells: CHO cells deficient in α5 gene, transfected with αv gene
T1 sequence (P06756 31-889 limits assumed): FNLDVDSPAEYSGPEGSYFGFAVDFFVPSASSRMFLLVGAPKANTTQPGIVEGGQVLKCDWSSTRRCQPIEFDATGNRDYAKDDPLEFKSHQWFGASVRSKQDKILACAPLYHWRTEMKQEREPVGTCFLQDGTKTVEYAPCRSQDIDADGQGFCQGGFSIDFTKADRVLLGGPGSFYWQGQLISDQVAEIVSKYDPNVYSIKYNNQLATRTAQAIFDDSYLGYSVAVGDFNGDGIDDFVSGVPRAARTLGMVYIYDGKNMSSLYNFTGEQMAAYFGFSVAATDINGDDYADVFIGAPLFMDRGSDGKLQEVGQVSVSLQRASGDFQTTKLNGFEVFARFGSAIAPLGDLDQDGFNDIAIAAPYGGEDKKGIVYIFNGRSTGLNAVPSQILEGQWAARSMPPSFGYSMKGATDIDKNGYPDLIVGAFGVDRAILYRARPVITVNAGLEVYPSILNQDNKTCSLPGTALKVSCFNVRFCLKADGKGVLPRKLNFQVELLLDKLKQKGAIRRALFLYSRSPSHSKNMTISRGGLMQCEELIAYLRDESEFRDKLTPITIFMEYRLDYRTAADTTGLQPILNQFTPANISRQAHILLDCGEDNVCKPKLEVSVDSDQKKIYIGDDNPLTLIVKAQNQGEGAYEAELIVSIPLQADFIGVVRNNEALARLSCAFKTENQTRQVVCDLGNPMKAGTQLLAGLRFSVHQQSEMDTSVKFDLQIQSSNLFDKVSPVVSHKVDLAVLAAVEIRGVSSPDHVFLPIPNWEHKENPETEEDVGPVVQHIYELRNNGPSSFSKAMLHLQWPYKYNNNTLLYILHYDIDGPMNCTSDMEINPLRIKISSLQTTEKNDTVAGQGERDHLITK
T1 sequence (P06756 891-1048 limits assumed): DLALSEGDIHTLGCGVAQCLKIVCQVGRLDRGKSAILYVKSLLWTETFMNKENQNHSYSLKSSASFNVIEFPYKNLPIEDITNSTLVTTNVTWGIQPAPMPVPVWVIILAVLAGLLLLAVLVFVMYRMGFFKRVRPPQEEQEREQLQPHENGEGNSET
T1 sequence (G3HZ55 21-798): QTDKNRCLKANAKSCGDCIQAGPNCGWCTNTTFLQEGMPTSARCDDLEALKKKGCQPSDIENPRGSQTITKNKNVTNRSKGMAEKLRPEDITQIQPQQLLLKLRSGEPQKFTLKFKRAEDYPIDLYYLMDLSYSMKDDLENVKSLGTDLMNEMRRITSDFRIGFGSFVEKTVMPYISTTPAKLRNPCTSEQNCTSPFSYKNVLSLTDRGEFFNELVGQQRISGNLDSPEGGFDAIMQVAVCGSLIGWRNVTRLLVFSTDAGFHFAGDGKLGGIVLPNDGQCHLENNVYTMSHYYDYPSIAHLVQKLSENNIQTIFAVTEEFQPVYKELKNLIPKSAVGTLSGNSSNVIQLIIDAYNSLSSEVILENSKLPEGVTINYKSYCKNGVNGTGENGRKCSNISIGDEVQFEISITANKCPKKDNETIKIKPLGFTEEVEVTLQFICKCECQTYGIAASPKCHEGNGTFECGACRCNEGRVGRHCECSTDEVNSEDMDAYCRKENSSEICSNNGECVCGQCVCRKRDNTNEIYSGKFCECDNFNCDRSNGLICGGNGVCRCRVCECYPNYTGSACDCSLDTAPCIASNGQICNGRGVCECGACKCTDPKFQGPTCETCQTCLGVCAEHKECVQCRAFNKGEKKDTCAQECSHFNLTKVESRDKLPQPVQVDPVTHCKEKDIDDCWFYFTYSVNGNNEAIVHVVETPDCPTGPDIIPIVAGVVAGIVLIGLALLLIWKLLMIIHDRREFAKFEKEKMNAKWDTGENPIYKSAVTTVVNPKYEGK
How it was run: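 α5-deficient CHO cells expressing αv, at 1×10^6 cells/mL in DMEM with 1 mM MnCl2 plus test compound, allowed to adhere 1 h at 37° C to human fibronectin (coated at 1.25 μg/mL). Adherent cells read by crystal violet absorbance, normalized to uncoated (100%) and DMSO (0%) wells. IC50 reported as banded classes.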

[2] = molecular target: T2, αvβ6 (Homo sapiens, UniProt P06756+P18564); assay: αvβ6 cell adhesion inhibition test (HT-29 cells on recombinant human LAP protein); assay type: cell-based; conditions: recombinant human LAP coating, 200 μM MnCl2, 1 hour, read-out: IC50 (rate of inhibition of cell adhesion, αvβ6)
T2 construct: endogenous in cells; host or cells: HT-29 cells
T2 sequence (P06756 31-889 limits assumed): as the sequence (P06756 31-889 limits assumed) above
T2 sequence (P06756 891-1048 limits assumed): as the sequence (P06756 891-1048 limits assumed) above
T2 sequence (P18564 22-788): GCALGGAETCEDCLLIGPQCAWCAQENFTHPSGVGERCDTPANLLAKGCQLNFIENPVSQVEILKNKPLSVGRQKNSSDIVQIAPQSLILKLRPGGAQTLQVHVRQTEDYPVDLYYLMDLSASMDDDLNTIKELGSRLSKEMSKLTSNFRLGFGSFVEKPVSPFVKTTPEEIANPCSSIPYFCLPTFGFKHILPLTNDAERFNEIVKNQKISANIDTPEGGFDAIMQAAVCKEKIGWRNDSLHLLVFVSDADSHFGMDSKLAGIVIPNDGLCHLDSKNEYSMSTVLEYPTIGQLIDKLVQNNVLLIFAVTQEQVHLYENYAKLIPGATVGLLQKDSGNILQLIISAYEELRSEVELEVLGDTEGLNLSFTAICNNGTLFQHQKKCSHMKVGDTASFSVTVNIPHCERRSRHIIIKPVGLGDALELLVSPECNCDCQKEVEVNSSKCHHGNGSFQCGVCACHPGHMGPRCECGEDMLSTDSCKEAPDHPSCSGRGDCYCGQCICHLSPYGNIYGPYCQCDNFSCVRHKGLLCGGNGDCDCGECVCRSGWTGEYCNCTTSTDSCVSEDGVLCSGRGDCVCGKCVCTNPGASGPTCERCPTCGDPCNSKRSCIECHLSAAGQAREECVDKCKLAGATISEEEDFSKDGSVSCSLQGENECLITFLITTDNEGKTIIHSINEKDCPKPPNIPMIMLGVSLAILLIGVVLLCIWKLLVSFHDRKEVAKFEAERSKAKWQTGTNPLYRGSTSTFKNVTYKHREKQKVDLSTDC
How it was run: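 HT-29 cells in DMEM/0.1% BSA with 200 μM MnCl2 plus test compound, 1 h adhesion at 37 °C on plates coated with […] recombinant human LAP (BSA-blocked). Adherent cells crystal-violet stained and absorbance read; inhibition scaled between uncoated wells (100%) and DMSO (0%), IC50 derived and binned A–E.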

Row | SMILES | IC50 [1] [nM] | IC50 [2] [nM]
1 | O=C(O)C[C@H](NC(=O)CNC(=O)c1cc(NC2=NCC(O)CN2)c2cn[nH]c2c1)c1cc(Cl)cc(C(F)(F)F)c1 (stereo partly drawn) [Example 50-(b), (3S)-3-(3-chloro-5-(trifluoromethyl)phenyl)-3-(2-(4-((5-hydroxy-1,4,5,6-tetrahydropyrimidin-2-yl)amino)-1H-indazole-6-carboxamido)acetamido)propanoic acid] | 10 to 30 | 10 to 30
2 | O=C(O)C[C@H](NC(=O)CNC(=O)c1cc(NC2=NCCCN2)c2cn[nH]c2c1)c1cc(Cl)cc(C(F)(F)F)c1 [Example 51-(b), (S)-3-(3-chloro-5-(trifluoromethyl)phenyl)-3-(2-(4-((1,4,5,6-tetrahydropyrimidin-2-yl)amino)-1H-indazole-6-carboxamido)acetamido)propanoic acid] | 30 to 100 | 10 to 30
3 | O=C(O)C[C@H](NC(=O)CNC(=O)c1cc(NC2=NCC(F)CN2)cc2[nH]ncc12)c1cc(Cl)cc(C(F)(F)F)c1 (stereo partly drawn) [Example 52-(b), (3S)-3-(3-chloro-5-(trifluoromethyl)phenyl)-3-(2-(6-((5-fluoro-1,4,5,6-tetrahydropyrimidin-2-yl)amino)-1H-indazole-4-carboxamido)acetamido)propanoic acid] | < 3 | < 3
4 | O=C(O)C[C@H](NC(=O)CNC(=O)c1cc(NC2=NCC(F)CN2)cc2[nH]ncc12)c1cc(Br)cc(C(F)(F)F)c1 (stereo partly drawn) [Example 53-(b), (3S)-3-(3-bromo-5-(trifluoromethyl)phenyl)-3-(2-(6-((5-fluoro-1,4,5,6-tetrahydropyrimidin-2-yl)amino)-1H-indazole-4-carboxamido)acetamido)propanoic acid] | < 3 | < 3
5 | O=C(O)C[C@H](NC(=O)CNC(=O)c1cc(NC2=NCC(F)CN2)cc2[nH]ncc12)c1cc(I)cc(C(F)(F)F)c1 (stereo partly drawn) [Example 54-(b), (3S)-3-(2-(6-((5-fluoro-1,4,5,6-tetrahydropyrimidin-2-yl)amino)-1H-indazole-4-carboxamido)acetamido)-3-(3-iodo-5-(trifluoromethyl)phenyl)propanoic acid] | < 3 | < 3
6 | O=C(O)C[C@H](NC(=O)CNC(=O)c1cc(NC2=NCC(F)CN2)cc2[nH]ncc12)c1ccc(F)c(C(F)(F)F)c1 (stereo partly drawn) [Example 55-(b), (3S)-3-(2-(6-((5-fluoro-1,4,5,6-tetrahydropyrimidin-2-yl)amino)-1H-indazole-4-carboxamido)acetamido)-3-(4-fluoro-3-(trifluoromethyl)phenyl)propanoic acid] | < 3 | < 3
7 | O=C(O)C[C@H](NC(=O)CNC(=O)c1cc(NC2=NCC(F)CN2)cc2[nH]ncc12)c1cccc(C(F)(F)F)c1 (stereo partly drawn) [Example 56-(b), (3S)-3-(2-(6-((5-fluoro-1,4,5,6-tetrahydropyrimidin-2-yl)amino)-1H-indazole-4-carboxamido)acetamido)-3-(3-(trifluoromethyl)phenyl)propanoic acid] | 3 to 10 | 3 to 10
